Assay results published in publication PMC10065799, “High-throughput profiling of sequence recognition by tyrosine kinases and SH2 domains using bacterial peptide display” (eLife, 2023).

Columns and labels:
Assay in all cases: pTyr-Var library bacterial peptide display kinase screen (enrichment scores)
c-Abl kinase domain = target: T1, c-Abl kinase domain (Mus musculus, UniProt P00520); format: biochemical;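 further: log2 fold change in enrichment of variant over reference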
T1 sequence (P00520 242-493 limits assumed): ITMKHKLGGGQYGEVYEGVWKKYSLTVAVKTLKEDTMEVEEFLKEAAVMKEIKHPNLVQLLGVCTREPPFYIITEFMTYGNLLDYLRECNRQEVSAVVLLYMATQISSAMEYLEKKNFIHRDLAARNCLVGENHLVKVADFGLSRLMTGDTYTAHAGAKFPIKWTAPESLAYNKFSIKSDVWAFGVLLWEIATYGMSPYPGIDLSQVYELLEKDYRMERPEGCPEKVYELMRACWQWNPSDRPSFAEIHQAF

EPHB2 kinase domain = format: biochemical, human; details: sheet EPHB2; effect of variant peptide relative to its reference peptide in the pTyr-Var library screen (enrichment scores)
c-Src kinase domain = c-Src kinase domain (Homo sapiens, UniProt P12931); format: biochemical; details: sheet "Src";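 further: log2 fold change in enrichment of variant over reference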
EPHB1 kinase domain = format: biochemical, human; details: for Screen: sheet EPHB1, effect of the variant peptide relative to its reference peptide in the pTyr-Var library screen (enrichment scores)
Fer kinase domain = format: biochemical, mouse; details: sheet "Fer"
[1] = sheet "Abl", effect of variant peptide relative to its reference peptide in pTyr-Var library screen (enrichment)
[2] = effect of the variant peptide relative to its reference peptide in the pTyr-Var library screen
[3] = variant peptide versus its reference peptide in the pTyr-Var library screen
[4] = fig5-data2, sheet "Abl", Screen for the variant/reference peptide pair, pTyr-Var library
[5] = value of the variant peptide against its reference peptide in the pTyr-Var library screen with Fer
[6] = variant peptide relative to its reference peptide, pTyr-Var library screen enrichment

Sequence AALRLYHVSDS [VIL1_Y256_K254R] has a Screen (c-Abl kinase domain; [1]) of 2.11.
Sequence ACQSLYGGFVE [MVD_Y164_R161Q] has a Screen (EPHB2 kinase domain) of 1.328 and a Screen (c-Src kinase domain; [2]) of 0.09261.
ADGLEYPRTGL [MMUT_Y287_S288P] showed a Screen (EPHB2 kinase domain) of -1.339.
Work on AGARMYGVLPW [PLP1_Y207_D203G] yielded a Screen (EPHB2 kinase domain) of -1.831 and a Screen (c-Src kinase domain; [3]) of -0.8816.
For ARKCKYFKKHE [NFIX_Y40_R38C], the Screen (c-Abl kinase domain; [4]) was 1.494.
AVARMYGVLPW [PLP1_Y207_D203V] gave a Screen (EPHB2 kinase domain) of -2.007 and a Screen (c-Src kinase domain; [3]) of -1.597.
Work on DFFDLYGGQKF [PTPN11_Y66_E69Q_YF] yielded a Screen (c-Src kinase domain; [3]) of 1.294.
DGPVNYEEFVQ [CALM2_Y139_Q136P] was tested, and the Screen (EPHB1 kinase domain) was -0.2324.
With DPNQQYFIAMD [TBX15_Y159_H156N_YF] the Screen (c-Abl kinase domain; [1]) was -1.397.
DTQNSYWCATS [TSC1_Y304_G305W] was tested, and the Screen (c-Abl kinase domain; [1]) was 1.58.
DWWQEYVLNES [TGM1_Y267_R264W] was tested, and the Screen (c-Src kinase domain; [3]) was 1.594.
EAGKVYLKAAM [CBFB_Y96_P100A] was tested, and the Screen (c-Abl kinase domain; [4]) was 0.4405.
With EALDFYGEVRI [PTEN_Y155_T160I] the Screen (Fer kinase domain; [5]) was 1.122.
Sequence EAVKNYTEKRG [PBRM1_Y672_D674E] has a Screen (c-Abl kinase domain; [4]) of -0.8395.
EDKFMYLEFPQ [PTEN_Y240_F241L] showed a Screen (c-Src kinase domain; [3]) of -1.097.
For EELLRYAIVTP [POC5_Y37_H36R], the Screen (Fer kinase domain; [5]) was -3.509 and the Screen (EPHB1 kinase domain) was -2.287.
Sequence EFRFIYMAVQH [PTPN11_Y515_Q510E_YF] has a Screen (c-Src kinase domain; [3]) of 0.0506.
Sequence ELAVNYQEQAS [SLC9A9_Y591_I589V] has a Screen (c-Abl kinase domain; [1]) of 1.481.
Sequence EWLRRYLKNGK [HLA-C_Y195_E197K] has a Screen (c-Abl kinase domain; [4]) of -0.1377.
FCRHNYGVGES [HLA-DRB1_Y112_V115G_YF] showed a Screen (EPHB2 kinase domain) of -2.304.
Sequence FLLRVYSIFSK [SGCE_Y38_T36R] has a Screen (c-Src kinase domain; [3]) of -1.068.
FQKDVYNIPPS [NEDD9_Y177_D178N_YF] showed a Screen (EPHB2 kinase domain) of -2.279 and a Screen (c-Src kinase domain; [3]) of -0.2537.
FSSLGYPLPEG [ZSWIM4_Y87_P89L_YF] was tested, and the Screen (c-Abl kinase domain; [1]) was 1.474.
Work on FVSLIYTNFEA [GSTP1_Y109_I105V_YF] yielded a Screen (c-Src kinase domain; [2]) of 0.3433 and a Screen (Fer kinase domain; [5]) of 0.7121.
For GCKNRYDEDKP [THAP1_Y14_K16E], the Screen (c-Abl kinase domain; [1]) was 1.101.
GDEVEYMSVSF [GCLC_Y53_L55S] was tested, and the Screen (Fer kinase domain; [5]) was -1.292.
GEFFRYLAEVA [YWHAG_Y133_D129E_YF] was tested, and the Screen (c-Abl kinase domain; [1]) was 3.326.
With GLTSTYVGIRK [ROBO1_Y932_A933V] the Screen (c-Src kinase domain; [3]) was -1.42.
In the case of GMTLSYLFWEP [NDUFS8_Y74_R77W], the Screen (Fer kinase domain; [5]) is reported as 3.343.
GQLIVYAPPEW [CNTN6_Y315_F314V] showed a Screen (EPHB2 kinase domain) of -0.7681, a Screen (c-Src kinase domain; [2]) of 1.101 and a Screen (Fer kinase domain; [5]) of -1.619.
In the case of HCFAAYFQQGD [GPI_Y351_R347C], the Screen (c-Abl kinase domain; [4]) is reported as 0.663.
With HEEDNYIEMIP [NWD2_Y566_L569M] the Screen (EPHB2 kinase domain) was -0.6493 and the Screen (EPHB1 kinase domain) was -0.841.
HGEAVYSRDCV [XPC_Y676_R671H] was tested, and the Screen (c-Src kinase domain; [3]) was 0.7041 and the Screen (c-Abl kinase domain; [1]) was 1.031.
In the case of HKNNNYEPSLF [BRCA2_Y57_N60S], the Screen (EPHB1 kinase domain) is reported as -1.049.
HPAGNYSLSSV [ARFGAP3_Y473_Q468H] was tested, and the Screen (c-Abl kinase domain; [4]) was -0.2234.
With IVRSLYEDQED [VHL_Y185_L188Q] the Screen (c-Abl kinase domain; [1]) was 2.774.
For IVTLKYPIEHG [ACTB_Y69_L65V], the Screen (c-Abl kinase domain; [4]) was -1.416.
Sequence KACNPYKPPGP [TTN_Y25826_T25821K] has a Screen (c-Abl kinase domain; [1]) of -2.971.
KAEQLYIGVTV [EFHC2_Y509_E507Q] gave a Screen (c-Src kinase domain; [2]) of 0.06421 and a Screen (Fer kinase domain; [5]) of 0.3011.
For KFADVYVGICL [B3GALNT1_Y269_E266A], the Screen (c-Src kinase domain; [2]) was -1.369 and the Screen (Fer kinase domain; [5]) was -1.445.
Work on KGEDFYFVTCH [FHL1_Y149_C150Y_YF] yielded a Screen (c-Abl kinase domain; [4]) of -2.007.
KGEDFYSVTCH [FHL1_Y149_C150S] showed a Screen (c-Src kinase domain; [2]) of 2.7 and a Screen (Fer kinase domain; [5]) of 2.793.
KMKGEYFRFLA [YWHAG_Y130_D129E_YF] gave a Screen (c-Src kinase domain; [3]) of 0.3869 and a Screen (c-Abl kinase domain; [1]) of -2.114.
Work on KSFDMYSGDVM [FAM3D_Y122_A118S] yielded a Screen (EPHB1 kinase domain) of 0.345.
Work on KTGDFYDLFGG [PTPN11_Y63_N58K_YF] yielded a Screen (c-Src kinase domain; [3]) of -0.7427 and a Screen (Fer kinase domain; [6]) of -1.345.
LAVNPYGPPDL [TTN_Y22579_P22584L] showed a Screen (c-Abl kinase domain; [1]) of -1.7.
In the case of LDLPGYCLLRE [CCDC116_Y291_P293L], the Screen (c-Abl kinase domain; [4]) is reported as -2.162 and the Screen (EPHB1 kinase domain) is reported as 0.4195.
Work on LEQDEYALHSH [HADHB_Y244_R247H] yielded a Screen (EPHB2 kinase domain) of -1.049.
With LFMGDYVGRGF [PPP2CA_Y86_D88G_YF] the Screen (c-Src kinase domain; [3]) was 1.98 and the Screen (EPHB1 kinase domain) was 1.681.
For LHQSTYQCFDV [SLC7A14_Y693_R695C_YF], the Screen (c-Src kinase domain; [3]) was 0.927, the Screen (Fer kinase domain; [6]) was 1.307 and the “Screen (variant relative to reference peptide, measured in the pTyr-Var library screen)” value (EPHB1 kinase domain; sheet "EPHB1", variant seq vs reference seq, bacterial peptide display enrichment) was 1.159.
